Experimental data as given in US20230113378A1, “Methods Of Treating Multiple Sclerosis” (priority 2021, published 2023).
“And” between values parts separate entries of the source, which are not always exact repeats. Identical values can stand only once. “Also recorded” adds a separate entry of the source.

What was measured:
influenza vaccine = details: observed previously; cited from earlier work
[1] = tested on: SARS-CoV-2 anti-spike-protein (spike) antibody; assay: SARS-CoV-2 anti-spike IgG ELISA before and after COVID-19 vaccination in RMS patients on ponesimod (study AC-058B202); assay type: in vivo, human
Procedure: (§1) Participants in this study receiving 20 mg ponesimod who reported COVID-19 vaccination were analyzed. Blood samples collected before and at least 3 weeks after COVID-19 vaccination were tested for SARS-CoV-2 anti-spike-protein (spike) antibody concentrations (Human SARS-CoV-2 PreSpike IgG ELISA, Nexelis). Response to vaccination was defined as seroconversion in case of negative pre-vaccination antibody testing, or a 4-fold antibody concentration increase in case of positive pre-vaccination antibody result. COVID-19 infection adverse events (AEs) were evaluated in this study sub-population.
Of the 134 participants, 49 participants had both pre- and post-vaccination blood samples tested for anti-spike antibody concentrations. Out of these 49 participants, 40 (81.6%) met the pre-specified definition of response to COVID-19 vaccination. […] Response was defined as pre-vaccination titer≤lower limit of quantification (LLOQ) and post-vaccination titer >LLOQ; or pre-vaccination titer >LLOQ (i.e., seroconversion in case of negative pre-vaccination antibody testing) and post-vaccination titer >4× increase (i.e., a 4-fold antibody concentration increase in case of positive pre-vaccination antibody result).
Patients in the Phase 2 extension study AC-058B202 receiving ponesimod 20 mg who reported COVID-19 vaccination were included in this analysis. Blood samples collected before and at least 3 weeks after vaccination were evaluated with Human SARS-CoV-2 PreSpike IgG (spike antibody) enzyme-linked immunoassay (Nexelis). A responder to vaccination was defined as seroconversion in case of negative pre-vaccination antibody testing, or a 4-fold antibody concentration increase in case of positive pre-vaccination antibody result. Responder analysis was performed by vaccine type, and by pre-vaccination lymphocyte count.

[2] = COVID-19 infection adverse events in vaccinated RMS patients on ponesimod (study AC-058B202); assay type: in vivo, human
Procedure: as §1

influenza A/PR/8/34 = assay: Neutralizing antibody response to inactivated influenza A/PR/8/34 immunization in mice on ponesimod chow; assay type: in vivo, female BALB/c mice
Source text: The neutralizing antibody response to a single intramuscular injection of purified and inactivated influenza A/PR/8/34 was compared in female BALB/c mice that were maintained on different oral ponesimod regimens (Group 1: standard chow; Group 2: continuous specialty chow with ponesimod at 1000 ppm; Group 3: specialty chow with a 4-day discontinuation around immunization).
Mean percentage inhibition of viral infection by A/PR/8/34 with serum samples, ±SEM.
Table 5 presents data regarding dilution from neat serum that results in 50% inhibition of viral infection (ID50).

[3] = inactivated virus vaccines, post-vaccination
[4] = inactivated virus vaccines, pre-vaccination
[5] = mRNA vaccines, post-vaccination
[6] = mixed vaccines, post-vaccination
[7] = mixed vaccines, pre-vaccination
[8] = subjects pre-vaccination negative
[9] = subjects pre-vaccination positive
[10] = unspecified vaccines, post-vaccination
[11] = unspecified vaccines, pre-vaccination
[12] = viral vector vaccines, post-vaccination

## CCc1cc(/C(C)=N/OCc2ccc(C3CCCCC3)c(C(F)(F)F)c2)ccc1CN1CC(C(=O)O)C1 [siponimod]
Influenza vaccine
  Vaccination response to the influenza vaccine: reduced vaccination response

## CCC/N=C1\S/C(=C\c2ccc(OC[C@H](O)CO)c(Cl)c2)C(=O)N1c1ccccc1C [ponesimod, (R)-5-[3-chloro-4-(2,3-dihydroxy-propoxy)-benz[Z]ylidene]-2-([Z]-propylimino)-3-o-tolyl-thiazolidin-4-one]
[1]; all vaccines, 1st vaccine regimen, ponesimod 20 mg
  Fold increase from baseline of S binding antibody, geometric mean (95% CI): 12.90 (7.64; 21.78)
[1]; all vaccines, seroconversion or >4-fold increase
  Responders (n/N) (%) (95% CI): 40 (81.6%) n/N (%)
[1]; inactivated virus vaccines
  Fold increase from baseline, geometric mean (95% CI): 1.29 (0.50; 3.32)
  Responders (n/N) (%) (95% CI): 2 (33.3%) n/N (%)
[1]; [3]
  Positive sample n (%) (95% CI): 6 (66.7%) (29.93; 92.51) n (%)
  S binding antibody concentration, geometric mean (95% CI): 84.22 (<LLOQ; 189.22) EU/mL
[1]; [4]
  Positive sample n (%) (95% CI): 3 (50.0%) (11.81; 88.19) n (%)
  S binding antibody concentration, geometric mean (95% CI): 65.88 (<LLOQ; 203.92) EU/mL
[1]; mRNA COVID-19 vaccines and/or pre-vaccination lymphocyte counts ≥500 cells/mm^3
  Patients meeting antibody concentration responder criteria: > 90%
[1]; mRNA vaccines
  Fold increase from baseline, geometric mean (95% CI): 20.68 (11.35; 37.68)
  Responders (n/N) (%) (95% CI): 29 (90.6%) n/N (%)
[1]; [5]
  Positive sample n (%) (95% CI): 62 (88.6%) (78.72; 94.93) n (%)
  S binding antibody concentration, geometric mean (95% CI): 833.22 (513.88; 1351.00) EU/mL
[1]; mRNA vaccines, pre-vaccination
  Positive sample n (%) (95% CI): 5 (15.6%) (5.28; 32.79) n (%)
[1]; mixed or unspecified vaccine types, 4 participants
  Responders n (%): 4 (100%) n (%)
[1]; mixed vaccines
  Fold increase from baseline, geometric mean: 11.49
[1]; [6]
  Positive sample n (%): 5 (100.0%) n (%)
  S binding antibody concentration, geometric mean: 1525.40 EU/mL
[1]; [7]
  Positive sample n (%): 1 (33.3%) n (%)
  S binding antibody concentration, geometric mean: <LLOQ
[1]; post-vaccination, all vaccines, 1st vaccine regimen, ponesimod 20 mg
  SARS-CoV-2 S binding antibody concentration, geometric mean (95% CI): 621.25 (414.96; 930.08) EU/mL
[1]; post-vaccination, all vaccines, positive = value > LLOQ
  Positive sample n (%) (95% CI): 89 (86.4%)(78.25; 92.37) n (%)
[1]; pre-vaccination lymphocyte count <500 cells/mm^3, 16 participants
  Responders n (%): 9 (56.3%) n (%)
[1]; pre-vaccination lymphocyte count ≥500 cells/mm^3, 32 participants
  Responders n (%): 30 (93.8%) n (%)
[1]; pre-vaccination, all vaccines, positive = value > LLOQ
  Positive sample n (%) (95% CI): 11 (22.4%) (11.77; 36.62) n (%)
[1]; [8]
  Post-vaccination Negative N (%): 5 (13.2%) N (%)
  Post-vaccination Responder N (%): 33 (86.8%) N (%)
[1]; subjects pre-vaccination negative (seroconversion)
  Post-vaccination Positive N (%): 33 (86.8%) N (%)
[1]; [9]
  Post-vaccination Negative N (%): 0 N (%)
  Post-vaccination Positive N (%): 11 (100.0%) N (%)
  Post-vaccination Responder N (%): 7 (63.6%) N (%)
[1]; unspecified vaccines
  Fold increase from baseline, geometric mean: 182.01
[1]; [10]
  Positive sample n (%): 2 (100.0%) n (%)
  S binding antibody concentration, geometric mean: 944.31 EU/mL
[1]; [11]
  Positive sample n (%): 0 n (%)
  S binding antibody concentration, geometric mean: <LLOQ
[1]; viral vector vaccines
  Fold increase from baseline, geometric mean (95% CI): 7.76 (2.22; 27.11)
  Responders (n/N) (%) (95% CI): 5 (71.4%) n/N (%)
[1]; [12]
  Positive sample n (%) (95% CI): 14 (82.4%) (56.57; 96.2) n (%)
  S binding antibody concentration, geometric mean (95% CI): 390.49 (140.01; 1089.07) EU/mL
[1]; viral vector vaccines, pre-vaccination
  Positive sample n (%) (95% CI): 2 (28.6%) (3.67; 70.96) n (%)
[2]; >=14 D Post Vx
  COVID-19 infection AEs leading to death, n (%): 0 n (%)
  COVID-19 infection AEs leading to treatment discontinuation, n (%): 0 n (%)
  COVID-19 infection AEs leading to treatment interruption, n (%): 4 (3.0%) n (%)
  COVID-19 infection AEs, severity Mild, n (%): 13 (9.7%) n (%)
  COVID-19 infection AEs, severity Moderate, n (%): 4 (3.0%) n (%)
  COVID-19 infection AEs, severity Severe, n (%): 0 n (%)
  Serious COVID-19 infection AEs, n (%): 0 n (%)
  Subjects with COVID-19 infection AEs, n (%): 17 (12.7%) n (%)
[2]; >=28 D Post Vx
  COVID-19 infection AEs leading to death, n (%): 0 n (%)
  COVID-19 infection AEs leading to treatment discontinuation, n (%): 0 n (%)
  COVID-19 infection AEs leading to treatment interruption, n (%): 4 (3.0%) n (%)
  COVID-19 infection AEs, severity Mild, n (%): 13 (9.7%) n (%)
  COVID-19 infection AEs, severity Moderate, n (%): 4 (3.0%) n (%)
  COVID-19 infection AEs, severity Severe, n (%): 0 n (%)
  Serious COVID-19 infection AEs, n (%): 0 n (%)
  Subjects with COVID-19 infection AEs, n (%): 17 (12.7%) n (%)
[2]; Post-Vx
  COVID-19 infection AEs leading to death, n (%): 0 n (%)
  COVID-19 infection AEs leading to treatment discontinuation, n (%): 0 n (%)
  COVID-19 infection AEs leading to treatment interruption, n (%): 4 (3.0%) n (%)
  COVID-19 infection AEs, severity Mild, n (%): 13 (9.7%) n (%)
  COVID-19 infection AEs, severity Moderate, n (%): 4 (3.0%) n (%)
  COVID-19 infection AEs, severity Severe, n (%): 0 n (%)
  Serious COVID-19 infection AEs, n (%): 0 n (%)
  Subjects with COVID-19 infection AEs, n (%): 17 n (%) and 17 (12.7%) n (%)
[2]; Pre-Vx
  COVID-19 infection AEs leading to death, n (%): 0 n (%)
  COVID-19 infection AEs leading to treatment discontinuation, n (%): 0 n (%)
  COVID-19 infection AEs leading to treatment interruption, n (%): 5 (3.7%) n (%)
  COVID-19 infection AEs, severity Mild, n (%): 18 (13.4%) n (%)
  COVID-19 infection AEs, severity Moderate, n (%): 2 (1.5%) n (%)
  COVID-19 infection AEs, severity Severe, n (%): 0 n (%)
  Serious COVID-19 infection AEs, n (%): 0 n (%)
  Subjects with COVID-19 infection AEs, n (%): 20 n (%) and 20 (14.9%) n (%)
[2]; Total
  COVID-19 infection AEs leading to treatment interruption, n (%): 7 (5.2%) n (%)
  COVID-19 infection AEs, severity Mild, n (%): 28 (20.9%) n (%)
  COVID-19 infection AEs, severity Moderate, n (%): 6 (4.5%) n (%)
  Subjects with COVID-19 infection AEs, n (%): 33 (24.6%) n (%)
Influenza A/PR/8/34; Concomitant (Group 2), Day 35
  Inhibition titer: dilution from neat serum that results in 50% inhibition of viral infection (ID50): 0.004
Influenza A/PR/8/34; Concomitant (Group 2), Day 63
  Inhibition titer: dilution from neat serum that results in 50% inhibition of viral infection (ID50): 0.003
Influenza A/PR/8/34; Concomitant (Group 2), Day 91
  Inhibition titer: dilution from neat serum that results in 50% inhibition of viral infection (ID50): 0.004
Influenza A/PR/8/34; Concomitant (Group 2, continuous ponesimod chow 1000 ppm), Day −1
  Inhibition titer: dilution from neat serum that results in 50% inhibition of viral infection (ID50): 0.050
Influenza A/PR/8/34; Discontinued (Group 3), Day 35
  Inhibition titer: dilution from neat serum that results in 50% inhibition of viral infection (ID50): 0.001
Influenza A/PR/8/34; Discontinued (Group 3), Day 63
  Inhibition titer: dilution from neat serum that results in 50% inhibition of viral infection (ID50): 0.002
Influenza A/PR/8/34; Discontinued (Group 3), Day 91
  Inhibition titer: dilution from neat serum that results in 50% inhibition of viral infection (ID50): 0.003
Influenza A/PR/8/34; Discontinued (Group 3, 4-day discontinuation around immunization), Day −1
  Inhibition titer: dilution from neat serum that results in 50% inhibition of viral infection (ID50): 0.001
Influenza A/PR/8/34; Group 2, continuously on ponesimod chow, inactivated H1N1 influenza vaccine
  Vaccine (antibody) response compared to control mice: attenuated vaccine response; also recorded: blunted, but not absent
Group 3, after a 2-day wash-out period
  Plasma drug levels after wash-out: cleared from plasma
Groups 2 and 3, by Day 5, ponesimod chow 1000 ppm
  Plasma drug levels: sufficiently high to reduce lymphocyte counts
